# PMC3731424 (Biochemistry, 2013)
# Read-outs that look alike come from different tables or passages of the source.
# Tests used:
# B. subtilis PBP4a = B. subtilis PBP4a (Bacillus subtilis, UniProt P39844); assay: Inhibition of B. subtilis PBP4a, competition with substrate 14; assay type: biochemical
# [1] = target: T1, Actinomadura R39 DD-peptidase (Actinomadura sp., UniProt P39045); assay type: biochemical
# [2] = Hydration equilibrium of the carbonyl compounds in aqueous solution; assay type: physicochemical; conditions: from 1H NMR spectra
# [3] = target: T1, Actinomadura R39 DD-peptidase; assay type: biochemical; remark: listed apart in the source
# [4] = literature estimate; cited from earlier work
# [5] = cited from earlier work
# T1 sequence (P39045 50-538): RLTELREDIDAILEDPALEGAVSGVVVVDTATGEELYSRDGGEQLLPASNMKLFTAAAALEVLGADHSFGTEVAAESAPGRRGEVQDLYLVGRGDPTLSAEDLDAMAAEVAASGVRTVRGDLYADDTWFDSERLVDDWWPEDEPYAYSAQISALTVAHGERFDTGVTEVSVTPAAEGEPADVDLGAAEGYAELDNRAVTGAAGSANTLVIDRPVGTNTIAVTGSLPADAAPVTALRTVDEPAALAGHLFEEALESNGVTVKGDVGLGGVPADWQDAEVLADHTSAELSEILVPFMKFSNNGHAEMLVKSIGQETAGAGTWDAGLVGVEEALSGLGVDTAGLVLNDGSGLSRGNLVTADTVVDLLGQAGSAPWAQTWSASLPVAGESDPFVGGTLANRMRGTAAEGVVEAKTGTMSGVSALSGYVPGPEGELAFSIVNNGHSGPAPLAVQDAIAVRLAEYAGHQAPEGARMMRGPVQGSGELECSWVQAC
compound,measurement,setting,value
C[C@H](C=O)NC(=O)CCCC[C@@H](N)C(=O)O [Compound 11],"Time dependence of inhibition, PBP4a",B. subtilis PBP4a,No time dependence
same,"Time dependence of inhibition, R39 DD-peptidase",[1],No time dependence
same,KH (hydration equilibrium constant [IOH2]/[I]),[2],30
"CC(NC(=O)CCCC[C@@H](N)C(=O)O)C(=O)C(F)(F)F (stereo partly drawn) [Compound 12, D-α-Aminopimelyl-(1,1,1-trifluoro-3-amino)butan-2-one]",Ki,B. subtilis PBP4a,13500 nM
same,"Time dependence of inhibition, PBP4a",B. subtilis PBP4a,No time dependence
same,Ki,[1],370 nM
same,"Time dependence of inhibition, R39 DD-peptidase",[1],No time dependence
same,Ki,[3],170 nM
"C[C@@H](SC(=O)CNC(=O)Cc1ccccc1)C(=O)O [Compound 14, (Phenylacetyl)glycyl-D-thiolactate, reference compound]",Km,"B. subtilis PBP4a; read-out: Km of the substrate, PBP4a, 20 mM MOPS pH 7.50, 25 °C",440 ± 80 µM
CC(=O)C(F)(F)F [trifluoroacetone],"KH, lower limit estimate",[4],≥ 35
OCC(F)(F)F [trifluoroethanol],pKa,[5],12.4
